Test results as given in patent US7867990B2, “Steroid hormone products and methods for preparing them” (Ortho-McNeil Pharmaceutical, Inc., priority 2001, dated 2011).

How the values were obtained:
[1] = Dissolution of crystalline and non-crystalline norgestimate (USP Apparatus 2, 75 rpm, 600 ml of 0.05% Tween 20); format: physicochemical; conditions: 600 ml 0.05% Tween 20
Method: Employing the current dissolution standard (USP Apparatus 2, 75 rpm, 600 ml of 0.05% Tween 20), the dissolution rates and extent of dissolution for individual samples of both crystalline and non-crystalline norgestimate were compared. […]

[2] = Physical stability (recrystallization) of amorphous materials in humidity chambers, followed by PXRD; conditions: for Stability of Amorphous Norgestimate (onset of norgestimate recrystallization), 0% RH: 0% RH humidity chamber; for Stability of Amorphous Norgestimate (onset of norgestimate recrystallization), 0% RH / Stability of Amorphous Norgestimate (onset of norgestimate recrystallization), 31% RH / Stability of Amorphous Norgestimate (onset of norgestimate recrystallization), 76% RH: PXRD; for Stability of Amorphous Norgestimate (onset of norgestimate recrystallization), 31% RH: 31% RH humidity chamber; for Stability of Amorphous Norgestimate (onset of norgestimate recrystallization), 76% RH: 76% RH humidity chamber
[3] = DSC thermal analysis: glass-transition temperature (Tg) and crystallization exotherm (Tc); format: physicochemical
Method: The lactose/norgestimate mixtures made as in Example 2 were subjected to thermal analysis, according to conventional Differential Scanning Calorimetry (DSC). […] Glass-transition temperature measurements generally entail trial runs on a DSC to obtain an optimal method for observing glass-transition events. […] Some amorphous norgestimate samples produce a weak Tg event at 122-123° C., while other samples shown an exothermic event, probably because of norgestimate crystallization. All of the norgestimate samples show a similar endothermic event at 226-228° C. The thermal gravimetric analysis (TGA) of samples show rapid weight loss at that temperature, therefore, the endotherm over 220° C. primarily corresponds to decomposition. The Merck Index lists the melting temperature of the crystalline norgestimate at 214-218° C. […] This thermal event (Tc) was used to measure the stability of different simulated drug products. The temperature of Tc- should be higher if norgestimate is stabilized by lactose.

[4] = PXRD pattern of norgestimate:lactose mixtures after milling; format: physicochemical; conditions: milled 20 minutes, mill type not specified at the place
Method: Research efforts were thus made to generate the non-crystalline form of norgestimate in the presence and absence of lactose via physical and mechanical processes. Various mixtures of norgestimate and lactose were prepared. To permit qualitative or semi-quantitative analysis, the ingredients were thoroughly mixed in ratios of 1:1 and 1:9 by either dissolving them in a co-solvent mixture or by co-grinding. Qualitative assessment of the degree of crystallinity was performed employing Powder X-Ray Diffractometry (PXRD).
Mixtures of norgestimate and lactose, in amorphous and crystalline forms, were milled for 20 minutes. The amorphous state of each ingredient and of the mixture was confirmed by powder x-ray pattern diffraction (PXRD).

[5] = Dissolution of norgestimate co-milled with lactose 1:9 in 100 ml 0.05% Tween 20 as a function of storage time; format: physicochemical; conditions: for Norgestimate Concentration Time = 0 Days: storage 0 days; for Norgestimate Concentration Time = 44 Days: stored 44 days at 40° C./75% RH
[6] = Dissolution of norgestimate from tablets manufactured by wet processing, initial and after accelerated storage; format: physicochemical; conditions: for Percent Norgestimate Dissolved in 30 Minutes, 1 month 40° C./75% RH: wet-processed tablets stored unprotected; for Percent Norgestimate Dissolved in 30 Minutes, Initial: wet-processed tablets
Excerpt: The data in Table 4 further support the existence of a high energy form of norgestimate in the presence of lactose. […] Like the data reported in Table 2, dissolution properties are dependent on storage conditions. However it is apparent that the extent of such changes is further dependent on the mixing energetics imparted during the process.

[7] = Dissolution of norgestimate from tablets manufactured by dry processing, pilot and production scale; format: physicochemical; conditions: dry-processed tablets
Method: Differences in the dissolution behavior of norgestimate from tablets manufactured by dry processing on both a pilot scale and a production scale were also evaluated. The minimum mechanical energy of 0.1 hp-min/kg can be imparted in a dry process using a geometric tumbler blender equipped for additional mixing energy with blades or choppers. A progestin such as norgestimate can be combined with lactose and additives. Increasing the length of processing time with the blades or choppers in use would impart sufficient energy to produce the forms identified in this invention. […] The important of dissolution rate as a function of mixing time is also noted.

SMILES: C#C[C@]1(OC(C)=O)CC[C@H]2[C@@H]3CCC4=CC(=NO)CC[C@@H]4[C@H]3CC[C@@]21CC (mixture of isomers) [Amorphous Norgestimate, norgestimate]
- Norgestimate concentration dissolved ([1]; dissolution time 5 min): 0.44 µg/mL
- Norgestimate concentration dissolved ([1]; dissolution time 60 min): 1.38 µg/mL
- Norgestimate concentration dissolved ([1]; dissolution time 120 min): 1.88 µg/mL
- Stability of Amorphous Norgestimate (onset of norgestimate recrystallization), 0% RH [2]: < 3 days
- Stability of Amorphous Norgestimate (onset of norgestimate recrystallization), 31% RH [2]: less than 1 days
- Stability of Amorphous Norgestimate (onset of norgestimate recrystallization), 76% RH [2]: less than 1 days
- Time to complete recrystallization of amorphous norgestimate ([2]; room temperature, 0%, 31% and 76% RH (all conditions tested)): ≤ 3 days
- Tc (crystallization of norgestimate) [3]: 105 °C
- Tg (glass-transition temperature) [3]: 122-123 °C

SMILES: C#C[C@]1(OC(C)=O)CC[C@H]2[C@@H]3CCC4=CC(=NO)CC[C@@H]4[C@H]3CC[C@@]21CC (mixture of isomers) [Norgestimate, norgestimate]
- Solid-state form of norgestimate after milling with lactose (PXRD) [4]: non-crystalline
- Norgestimate Concentration Time = 0 Days ([5]; dissolution time 10 min): 5.3 µg/mL
- Norgestimate Concentration Time = 44 Days ([5]; dissolution time 10 min): 2.4 µg/mL
- Norgestimate Concentration Time = 0 Days ([5]; dissolution time 20 min): 5.1 µg/mL
- Norgestimate Concentration Time = 44 Days ([5]; dissolution time 20 min): 5.2 µg/mL
- Norgestimate Concentration Time = 0 Days ([5]; dissolution time 30 min): 6.2 µg/mL
- Norgestimate Concentration Time = 44 Days ([5]; dissolution time 30 min): 6.5 µg/mL
- Norgestimate Concentration Time = 0 Days ([5]; dissolution time 60 min): 8.7 µg/mL
- Norgestimate Concentration Time = 44 Days ([5]; dissolution time 60 min): 5.9 µg/mL
- Norgestimate Concentration Time = 0 Days ([5]; dissolution time 240 min): 10 µg/mL
- Norgestimate Concentration Time = 44 Days ([5]; dissolution time 240 min): 6.7 µg/mL
- Norgestimate Concentration Time = 0 Days ([5]; dissolution time 720 min): 10.3 µg/mL
- Norgestimate Concentration Time = 44 Days ([5]; dissolution time 720 min): 7.3 µg/mL
- Percent Norgestimate Dissolved in 30 Minutes, 1 month 40° C./75% RH ([6]; blend time 0 minutes): 36%
- Percent Norgestimate Dissolved in 30 Minutes, 1 month 40° C./75% RH ([6]; blend time 2* minutes): 45%
- Percent Norgestimate Dissolved in 30 Minutes, 1 month 40° C./75% RH ([6]; blend time 20 minutes): 45%
- Percent Norgestimate Dissolved in 30 Minutes, 1 month 40° C./75% RH ([6]; blend time 40 minutes): 46%
- Percent Norgestimate Dissolved in 30 Minutes, 1 month 40° C./75% RH ([6]; blend time 60 minutes): 85%
- Percent Norgestimate Dissolved in 30 Minutes, Initial ([6]; blend time 0 minutes): 75.4%
- Percent Norgestimate Dissolved in 30 Minutes, Initial ([6]; blend time 2* minutes): 91%
- Percent Norgestimate Dissolved in 30 Minutes, Initial ([6]; blend time 20 minutes): 90.1%
- Percent Norgestimate Dissolved in 30 Minutes, Initial ([6]; blend time 40 minutes): 92.6%
- Percent Norgestimate Dissolved in 30 Minutes, Initial ([6]; blend time 60 minutes): 94.5%
- Stability of Amorphous Norgestimate (onset of norgestimate recrystallization), 0% RH [2]: <3 days
- Stability of Amorphous Norgestimate (onset of norgestimate recrystallization), 31% RH [2]: <1 day days
- Stability of Amorphous Norgestimate (onset of norgestimate recrystallization), 76% RH [2]: <1 day days
- Time to recrystallization of norgestimate ([2]; in the absence of lactose, room temperature, 0% RH chamber): ≤ 3 days
- Time norgestimate remained partially crystalline ([2]; norgestimate co-milled with lactose 1:9, approximately 40° C. at 75% RH): at least 44 days
- Percent Norgestimate Dissolved in 20 Minutes ([7]; pilot scale, mixing time 5 minutes): 78.4%
- Percent Norgestimate Dissolved in 20 Minutes ([7]; pilot scale, mixing time 10 minutes): 85%
- Percent Norgestimate Dissolved in 20 Minutes ([7]; pilot scale, mixing time 20 minutes): 88.5%
- Percent Norgestimate Dissolved in 20 Minutes ([7]; pilot scale, mixing time 30 minutes): 97.4%
- Percent Norgestimate Dissolved in 20 Minutes ([7]; pilot scale, mixing time 33 minutes): 93.6%
- Percent Norgestimate Dissolved in 20 Minutes ([7]; pilot scale, mixing time […]): 74.9%
- Percent Norgestimate Dissolved in 20 Minutes ([7]; production scale, mixing time 4.8 minutes): 64.7%
- Percent Norgestimate Dissolved in 20 Minutes ([7]; production scale, mixing time 12 minutes): 81.2%
- Percent Norgestimate Dissolved in 20 Minutes ([7]; production scale, mixing time 15 minutes): 90.3%
- Percent Norgestimate Dissolved in 20 Minutes ([7]; production scale, mixing time 30 minutes): 92.8%
- Percent Norgestimate Dissolved in 20 Minutes ([7]; production scale, mixing time 45 minutes): 96.2%
- Percent Norgestimate Dissolved in 20 Minutes ([7]; production scale, mixing time 60 minutes): 97.4%
- Percent Norgestimate Dissolved in 20 Minutes ([7]; production scale, mixing time 75 minutes): 97.2%

SMILES: OC[C@H]1O[C@@H](O[C@H]2[C@H](O)[C@@H](O)C(O)O[C@@H]2CO)[C@H](O)[C@@H](O)[C@H]1O (stereo partly shown) [Amorphous lactose, lactose]
- Tg (glass-transition temperature) [3]: 114-115 °C

SMILES: C#C[C@]1(OC(C)=O)CC[C@H]2[C@@H]3CCC4=CC(=NO)CC[C@@H]4[C@H]3CC[C@@]21CC [Crystalline Norgestimate, norgestimate]
- Norgestimate concentration dissolved ([1]; dissolution time 5 min): 0.43 µg/mL
- Norgestimate concentration dissolved ([1]; dissolution time 60 min): 0.81 µg/mL
- Norgestimate concentration dissolved ([1]; dissolution time 140 min): 1.36 µg/mL

SMILES: OC[C@H]1O[C@@H](O[C@H]2[C@H](O)[C@@H](O)C(O)O[C@@H]2CO)[C@H](O)[C@@H](O)[C@H]1O (stereo partly shown) [lactose]
- Solid-state form of lactose after milling with norgestimate (PXRD) [4]: partially crystalline
